According to patent publication US7485743B2, “Oligomeric ketone compounds” (BTG International Limited, priority 2004, dated 2009):

How the values were obtained:
[1] = Ketogenic effect after oral administration: β-hydroxybutyrate concentrations in rat plasma; assay type: in vivo, rat (male Sprague-Dawley); settings: 300 mg/kg po; for Maximum increase of plasma concentration of β-hydroxybutyrate: versus vehicle baseline
Description: Male Sprague-Dawley rats (weight range 200-250 g) were obtained from Charles River, Margate, Kent. The rats were group housed in polypropylene cages at a temperature of 21 ±4° C. and 55 ±20% humidity and on a standard light/dark cycle. Animals had free access to a standard pelleted rat diet and tap water at all times. Animals were accustomed to these conditions for at least one week before experimentation.
Animals were killed by CO2 and blood (approx, 5 ml) was collected by cardiac puncture at various times after dosing. Blood was collected into EDTA-coated plasma collection tubes (Sarstedt 5 ml K2E tubes) and kept on ice prior to centrifugation. Tubes were centrifuged in an Eppendorf 570R centrifuge at 4° C. for 5 minutes at 2500 rpm (1000 g). Following plasma separation, extreme care was taken to avoid contamination with red blood cells and samples were re-centrifuged as necessary. Plasma samples were initially frozen on dry ice and transferred to a −75° C. freezer until required for analysis.
Sodium DL-β-hydroxybutyrate (H-6501 Lot 111K2618) was obtained from Sigma. A stock solution of β-bydroxybutyrate (40 mM DL racemate equivalent to 20 mM D-isomer) was prepared in 0.9% saline solution, kept at 4° C. and used to generate appropriate dilutions for an assay standard curve.
Commercial clinical assay kits for the determination of D-β-hydroxybutyrate were obtained from Random Laboratories (Antrim, UK). Kits were obtained in two pack sizes (Ranbut RB1007: 10×10 ml and RB1008: 10×50 ml) but were otherwise identical. Each kit contained a standard solution of 1 mM D-β-hydroxybutyrate that was assayed every time to confirm the assay was performing correctly. The kit relies on measuring the appearance of NADH via the activity of β-hydroxybutyrate dehydrogenase measured as an increase of OD340 nm. An alkaline pH is necessary to drive the reaction equilibrium towards the production of NADH and acetoacetate.
The protocol supplied with the Ranbut kits was for a discrete (cuvette-based) spectrophotometric assay, so the protocol was modified for suitability with a 96-well microplate format using blank, flat-bottomed microplates (Greiner PS 655101 Lot 98 35 01). Assays were performed in triplicate using a sample volume of10 μl to each well for the standards and usually 20 μl for plasma samples (though this was varied for some experiments). Standard dilutions and samples were pipetted a single plate at a time and preincubated at 37° C. for 15 minutes in the sample compartment of a Molecular Devices VERSAMAX tunable microplate reader. The appropriate volume of assey reagent was reconstituted, according to instructions, using distilled water and preincubated at 37° C. for 15 minutes using a static water bath. The assay plate was ejected and the reaction started by adding rapidly 250 μl of reagent to each well (avoiding air bubbles). The plate was reloaded, mixed and then the change in OD340 nm followed in kinetic mode with a reading at every 15 seconds for a total of 2 minutes. The reaction rate was then determined from the OD increase over a suitable 1 minute period, after allowing a necessary period for the reaction rate to settle. The rate between 45 seconds and 105 seconds was used as the default measuring period, though occasionally a different period was used as necessary (e.g. if an aberrant reading was obtained at one of these time-points).
For analysis of spectrophotometric rate assays, linear regression analysis to the standard curve was used followed by interpolation of unknown values (GraphPad Prism 3.0) For comparison of treatment groups with vehicle, multiple 2-tailed T-tests were used and p<0.05 was taken to indicate statistical significance.

[2] = Description: Control animals received the appropriate vehicle (deionized water at 1 ml/kg) via the same route.

SMILES	Time at which the maximum increase of plasma β-hydroxybutyrate was observed [1]	Time by which plasma β-hydroxybutyrate returned to control values [1]	Time until which plasma β-hydroxybutyrate plateaued at the maximum level [1]	Level of plasma β-hydroxybutyrate at 1 h ([1]; 1 h after dosing)	Maximum increase of plasma concentration of β-hydroxybutyrate [1]	Solubility in deionized water and nature of the solution ([2]; deionized water, dosing solution for gavage)	Solubility in water ([2]; isolated product (syrup))
C[C@@H](O)CC(=O)[O-].[Na+] [KTX 0101, sodium (R)-3-hydroxybutyrate]	15 min	≤ 2 h	30 min	still significantly (P<0.05) elevated	0.4 mM		
CC(=O)CCOC(=O)C[C@@H](C)OC(=O)C[C@@H](C)OC(=O)C[C@@H](C)O [KTX 0204, 2-keto-butan-4-ol ester of (R)-3-hydroxybutyrate triolide]	30 min	≤ 1 h			0.25 mM	mostly soluble in deionized water and produced a cloudy and stable solution	water-soluble
